“And” between values parts separate entries of the source, which are not always exact repeats. Identical values can stand only once. Records with an inconclusive call do not appear.
System: BDF1 mice, colon carcinoma 38 sc, T/C %
Experiment: NCI In Vivo Anticancer Drug Screen. Data for tumor model Colon Carcinoma 38 (subcutaneous) in B6D2F1 (BDF1) mice
Details: endpoint: median tumor weight (est.), higher = larger tumour
In short: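 Transplantable tumor in mice; compound-treated vs vehicle-dosed controls. Measured survival or tumor size; value = T ÷ C.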

[1] = dose: 12.5 mg/kg/injection, schedule: Q07DX002 (ip), vehicle: Klucel (hydroxypropylcellulose) (HPC)
[2] = dose: 25.0 mg/kg/injection, schedule: Q07DX002 (ip), vehicle: Klucel (hydroxypropylcellulose) (HPC)

ClCCCCCCCCCCc1ccccc1
T/C [1]: 83 % of control
T/C (dose: 12.5 mg/kg/injection, schedule: Q07DX003 (ip), vehicle: Klucel (hydroxypropylcellulose) (HPC)): 77 % of control
T/C [2]: 83 % of control
T/C (dose: 25.0 mg/kg/injection, schedule: Q07DX003 (ip), vehicle: Klucel (hydroxypropylcellulose) (HPC)): 95 % of control
T/C (dose: 50.0 mg/kg/injection, schedule: Q07DX003 (ip), vehicle: Klucel (hydroxypropylcellulose) (HPC)): 63 % of control
T/C (dose: 100.0 mg/kg/injection, schedule: Q07DX002 (ip), vehicle: Klucel (hydroxypropylcellulose) (HPC)): 67 % of control
T/C (dose: 100.0 mg/kg/injection, schedule: Q07DX003 (ip), vehicle: Klucel (hydroxypropylcellulose) (HPC)): 65 % of control
T/C (dose: 200.0 mg/kg/injection, schedule: Q07DX002 (ip), vehicle: Klucel (hydroxypropylcellulose) (HPC)): 80 % of control
T/C (dose: 200.0 mg/kg/injection, schedule: Q07DX003 (ip), vehicle: Klucel (hydroxypropylcellulose) (HPC)): 90 % of control
T/C (dose: 400.0 mg/kg/injection, schedule: Q07DX002 (ip), vehicle: Klucel (hydroxypropylcellulose) (HPC)): 88 % of control
T/C (dose: 400.0 mg/kg/injection, schedule: Q07DX003 (ip), vehicle: Klucel (hydroxypropylcellulose) (HPC)): 51 % of control

Nc1cc2[nH]cnc2c(=O)[nH]1
T/C (dose: 12.5 mg/kg/injection, schedule: Q07DX002 (ip), vehicle: saline): 66 % of control
T/C (dose: 25.0 mg/kg/injection, schedule: Q07DX002 (ip), vehicle: saline): 168 % of control
T/C (dose: 100.0 mg/kg/injection, schedule: Q07DX002 (ip), vehicle: saline): 113 % of control
T/C (dose: 200.0 mg/kg/injection, schedule: Q07DX002 (ip), vehicle: saline): 99 % of control
T/C (dose: 400.0 mg/kg/injection, schedule: Q07DX002 (ip), vehicle: saline): 117 % of control

CN(C)c1ccc2c(N(C)C)cc(N(C)C)nc2c1
T/C (dose: 3.12 mg/kg/injection, schedule: Q07DX002 (ip), vehicle: Klucel (hydroxypropylcellulose) (HPC)): 77 % of control and 101 % of control
T/C [1]: 114 % of control and 107 % of control
T/C [2]: 72 % of control

Cc1c(-c2ccc(-c3ccccc3F)cc2)nc2ccc(F)cc2c1C(=O)O
T/C (dose: 5.0 mg/kg/injection, schedule: Q01DX008 (ip), vehicle: water): 24 % of control
T/C (dose: 10.0 mg/kg/injection, schedule: Q01DX008 (ip), vehicle: water): 5 % of control
T/C (dose: 20.0 mg/kg/injection, schedule: Q01DX008 (ip), vehicle: water): 16 % of control

C/C=C/c1cc2n(c1)C(=O)c1cc(OC3OC(C)C(NC)C(C)(O)C3O)c(C)c(O)c1NC2O (configuration not stated)
T/C (dose: 32.0 micrograms/kg/injection, schedule: Q07DX002 (ip), vehicle: saline): 42 % of control

CCCCCCCCCCCCCCCC(=O)O[C@@]12C[C@@H](C)[C@@]3(O)[C@@H](C=C(CO)C[C@]4(O)C(=O)C(C)=C[C@@H]34)[C@@H]1C2(C)C
T/C (dose: 0.06 mg/kg/injection, schedule: Q07DX002 (ip), vehicle: saline): 92 % of control
T/C (dose: 0.25 mg/kg/injection, schedule: Q07DX002 (ip), vehicle: saline): 91 % of control
T/C (dose: 0.5 mg/kg/injection, schedule: Q07DX002 (ip), vehicle: saline): 101 % of control
T/C (dose: 1.0 mg/kg/injection, schedule: Q07DX002 (ip), vehicle: saline): 60 % of control

CS(C)=O
T/C (dose: 1.5 grams/kg/injection, schedule: Q07DX003 (ip), vehicle: saline): 86 % of control
T/C (dose: 6.0 grams/kg/injection, schedule: Q07DX003 (ip), vehicle: saline): 83 % of control and 103 % of control
T/C (dose: 12.0 grams/kg/injection, schedule: Q07DX003 (ip), vehicle: saline): 171 % of control

CC(=O)O[C@H]1C(=O)[C@@]2(C)[C@H]([C@H](OC(=O)c3ccccc3)[C@]3(O)C[C@H](OC(=O)[C@H](O)[C@@H](NC(=O)c4ccccc4)c4ccccc4)C(C)=C1C3(C)C)[C@]1(OC(C)=O)CO[C@@H]1C[C@@H]2O
T/C (dose: 7.5 mg/kg/injection, schedule: Q07DX002 (ip), vehicle: Klucel (hydroxypropylcellulose) (HPC)): 69 % of control
T/C (dose: 30.0 mg/kg/injection, schedule: Q07DX002 (ip), vehicle: Klucel (hydroxypropylcellulose) (HPC)): 88 % of control
T/C (dose: 60.0 mg/kg/injection, schedule: Q07DX002 (ip), vehicle: Klucel (hydroxypropylcellulose) (HPC)): 106 % of control

C[CH2][Sn]1([CH2]C)[O]OC(c2ccccc2)[O]1 (configuration not stated)
T/C (dose: 1.56 mg/kg/injection, schedule: Q07DX002 (ip), vehicle: saline with Tween-80): 121 % of control
T/C (dose: 6.25 mg/kg/injection, schedule: Q07DX002 (ip), vehicle: saline with Tween-80): 237 % of control
T/C (dose: 12.5 mg/kg/injection, schedule: Q07DX002 (ip), vehicle: saline with Tween-80): 195 % of control
T/C (dose: 25.0 mg/kg/injection, schedule: Q07DX002 (ip), vehicle: saline with Tween-80): 84 % of control
